Test: GHS categories as the set defines them, by LD50: 1 up to 5, 2 up to 50, 3 up to 300, 4 up to 2000, 5 above 2000 mg/kg
Details: rat; in vivo; po

Compound	GHS category
CCOc1ccc(Nc2ccc(C(=C3C=CC(=[N+](CC)Cc4cccc(S(=O)(=O)[O-])c4)C=C3C)c3ccc(N(CC)Cc4cccc(S(=O)(=O)O)c4)cc3C)cc2)cc1	5
CCCCCCCCCCCCCCCC(=O)OC1=C(C(=O)Nc2ccccn2)N(C)S(=O)(=O)c2ccsc21	2
Oc1ccc(-c2ccccc2)cc1	5
FC(C(F)C(F)(F)C(F)(F)F)C(F)(F)F (stereo not given)	5
CNC(=O)c1cnc2cccc(C)n2c1=O	3
O=C(c1ccccc1)C1CCCCC1	5
COC1=C(OC)C(=O)C(CC=C(C)CCC=C(C)CCC=C(C)CCC=C(C)CCC=C(C)CCC=C(C)CCC=C(C)CCC=C(C)CCC=C(C)C)=C(C)C1=O	5
CC(=O)OCC1=C(C(=O)O)N2C(=O)C(NC(=O)Cc3cccs3)C2SC1 (stereo not given)	5
CC[C@H]1CO[C@@](Cn2cncn2)(c2cc3cc(Cl)ccc3o2)O1	4
O=C1CC(c2ccccc2)c2cc(Br)ccc2O1 (stereo not given)	5
O=C(CCl)N(c1ccccc1)c1c(Cl)cccc1Cl	5
O=P(Oc1ccccc1)(Oc1ccccc1)Oc1ccccc1-c1ccccc1	5
O=C(O)C[C@H](NCCN[C@@H](CC(=O)O)C(=O)O)C(=O)O	5
C=CCSc1nc2ccc(Cc3ccccc3)cc2[nH]1	5
CCN(CC)CCC#N	4
O=C(O)c1cc(O)[nH]c(=O)c1	5
CCO[C@@H]1O[C@H](C(COCc2ccccc2)OCc2ccccc2)[C@H](OCc2ccccc2)[C@H]1O (stereo not given in full)	5
CCCCCCCCC(=O)OCC	5
CC(C)(C)c1ccc(N(CCN2CCCCC2)c2cccc(Cl)c2)cc1	5
CCCCCOc1ccc(-c2ccc(C#N)cc2)cc1	5
C[Si](C)(C)C	5
CNCC(O)CO (stereo not given)	5
CC(C)c1cc(C(C)C)c([N+](=O)[O-])c(C(C)C)c1[N+](=O)[O-]	5
O=[N+]([O-])c1ccc(CCc2ccc([N+](=O)[O-])cc2)cc1	5
C=C(C)C(=O)OCCCCCCCCCCCC	5
CC(=O)CC(=O)Nc1ccc(S(=O)(=O)O)cc1	5
Nc1ccc([N+](=O)[O-])cc1O	5
Oc1cc(O)ncn1	5

Compound	GHS category
CC(C)OC(=O)CCC(=O)OC(C)C	5
O=C(Nc1ccc(NC(=O)c2cc3ccccc3c(N=Nc3cc(Cl)ccc3Cl)c2O)c(Cl)c1)c1cc2ccccc2c(N=Nc2cc(Cl)ccc2Cl)c1O	5
CCS(=O)c1c(C#N)nn(-c2c(Cl)cc(C(F)(F)F)cc2Cl)c1N (stereo not given)	5
CN(C)c1ccc(C=Nc2ccccc2C(=O)O)cc1	4
O=C1CCCCCN1C(=O)c1cccc(C(=O)N2CCCCCC2=O)c1	5
CCOC(=O)C(F)C(C)=O (stereo not given)	3
C=C(C)C(C)(C)Cc1ccc(Nc2ccc(CC(C)(C)C(=C)C)cc2)cc1	5
O=C(O)CC(=O)C(=O)O	5
C[C@@H](O)[C@H]1C(=O)N2C(C(=O)O)=C(S[C@@H]3CN[C@H](C(=O)N(C)C)C3)[C@H](C)[C@H]12	5
CCC(=O)OCCC(C)CCC=C(C)C (stereo not given)	5
O=C(O)CN1C(=O)c2cccc3cccc(c23)C1=O	5
C=COC(=O)CCCCCCCCCCC	5
CC1Cc2ccccc2N1NC(=O)c1ccc(Cl)c(S(N)(=O)=O)c1 (stereo not given)	5
O=C1c2ccccc2C2=Nc3cccc4cccc(c34)N12	5
CCCNC(=O)c1cnc2ccc(C)cn2c1=O	3
COC(=O)c1nccnc1N	5
c1ccc(Cn2ccnc2-c2nn[nH]n2)cc1	5
CN1C(=O)C(C)(C)Oc2cc(C(=O)C=Cc3ccc(Cl)cc3)ccc21	5
CC1CCCCC1	5
C[N+]1(CC(O)COc2cccc3c2CCC(=O)N3)CCC(c2ccccc2)CC1 (stereo not given)	4
O=C(C=Cc1ccccc1)OCCCc1ccccc1	5
CC(C)=CCC(O)C1=CC(=O)c2c(O)ccc(O)c2C1=O (stereo not given)	4
CCOP(=S)(OCC)N(SN(C)C(=O)ON=C(C)SC)C1CCCCC1	3
CCCCCCCCCCCCCCC	5
CCOC(=O)C(=O)Nc1cc(SCCOC)ncn1	4
CC(C)C1=CC23CCC4C(C)(C(=O)N5CCN(CCO)CC5)CCCC4(C)C2CC1C1C(=O)OC(=O)C13 (stereo not given)	5
C=CC(=C)C	5

Reference: the CATMoS acute toxicity set (Mansouri et al. 2021)
